From patent publication US20240027453A1, “METHOD FOR DETECTION AND QUANTITATIVE MONITORING OF INFECTIONS WITH HERPESVIRUSES” (The Trustees of Princeton University, priority 2020, published 2024)
Like-named read-outs stand apart in the source and are kept apart here.

Tested on: HCMV
Format: cell-based
Settings: DE
Procedure: In example herpesvirus PRM assay methods shown herein, cell pellets were lysed in 2% SDS, 100 mM NaCl, 0.5 mM EDTA, 50 mM Tris, pH 8.2, and 50 μg of protein was reduced and alkylated with 25 mM TCEP and 50 mM CAM respectively for 20 min at 70° C. Proteins were then precipitated via methanol chloroform precipitation (Wessel & Flugg, Anal Biochem. 138(1):141-143, 1984), resuspended in 50 mM HEPES, pH 8.2 and digested overnight with trypsin (50:1 protein:enzyme w/w ratio). Digested peptides were desalted by SDB-RPS StageTip as previously described (Lum et al., Cell Syst., 7(6):[…], 2018; Greco et al., Methods Mol Biol 1410:39-63, 2016; Federspiel & Cristea, Methods Mol Biol., 1977:115-143, 2019).
Peptides (1.0 μg on column) were analyzed by LC-MS/MS using a Dionex Ultimate 3000 UHPLC coupled online to an EASYSpray ion source and a Q Exactive HF. Peptides were separated on an EASYSpray C18 column (75 μm×25 cm) heated to 50° C. using a linear gradient of 5% B to 32% B over 60 min at a flow rate of 250 nL/min and were ionized at 1.7 kv. Mobile phase A consisted of 0.1% FA in H2O and mobile phase B consisted of 0.1% FA, 2.9% H2O in ACN.
The PRM method was controlled by a peptide inclusion list with retention time windows of 6 min for selected precursor ions.
The PRM assay was developed and analyzed using the open-source software Skyline (Maclean et al., Bioinformatics 26(7):966-968, 2010). Summed area under the curve of 3-4 transitions per peptide was used for quantitation. Targeted peptides were normalized to host protein loading control peptides. Peptide values for each sample were scaled to the average of each peptide across all runs. The average of multiple peptides was used as the inferred value for the protein measurement when more than one peptide was quantified (Federspiel et al., PLoS Biol. 17(9):e3000437. Doi: 10.1371/journal.pbio.3000437). PRM quantitation data were graphed using the Python Seaborn and Matplotlib libraries.
MRC5 primary human fibroblasts (HFs) (ATCC CCL-171) were used as the model system for HSV-1 and HCMV infections and were cultured in complete growth medium (DMEM supplemented with 10% fetal bovine serum and 1% penicillin-streptomycin antibiotics) at 37° C. and 5% CO2. iSLK.219 cells harboring latent KSHV (a gift from Dr. Britt Glaunsinger, University of California, Berkeley) were grown in complete growth medium supplemented with 500 μg/ml hygromycin (ThermoFisher Scientific, 10687010) at 37° C. and 5% CO2. All cells were used for experiments within a maximum of 10 passages.
Wild type HSV-1 strain 17+ (a gift from Beate Sodeik, Hannover Medical School, Hannover, Germany) was propagated as previously described (Diner et al., 2015). Briefly, PO stocks were generated by electroporating pBAC-HSV-1 into U-2 OS cells. […] In a similar manner, wild type HCMV strain AD169 was produced from BAC electroporation into HFs and working stocks were propagated by infecting HFs at a low level. In both cases, cell-associated virus was released by sonication, combined with supernatant virus, then concentrated by ultracentrifugation (20,000 rpm, 2 hours, 4° C. with SW28 swinging bucket rotor [Beckman Coulter]) over a 10% ficoll (HSV-1) or 20% sorbitol (HCMV) cushion. Virus stock titers were determined by plaque assay for HSV-1 or tissue culture infectious dose (TCID50) for HCMV and infections were performed at a multiplicity of infection (MOI) of 3.
12 hours prior to virus infection or reactivation, cells were treated with either the small molecule drug or DMSO/PBS control at an equivalent volume. […] For infection cycles lasting longer than 24 hours, small molecule drugs were re-added to the cell culture medium every 24 hours. Upon collection, cells were rinsed with PBS, scraped into a microcentrifuge tube, pelleted by centrifugation, and rinsed again with PBS.

Nc1ccn(C[C@@H](CO)OCP(=O)(O)O)c(=O)n1 [CDV, cidofovir]
UL71 (P16823) protein, numerical value of heatmap FIG. 6C (timepoint 48): 0.3899 | UL78 (P16751) protein, numerical value of heatmap FIG. 6C (timepoint 48): 0.6533 | UL84 (P16727) protein, numerical value of heatmap FIG. 6C (timepoint 48): 0.1297 | UL95 (P16801) protein, numerical value of heatmap FIG. 6C (timepoint 48): 0.1215 | UL96 (P16787) protein, numerical value of heatmap FIG. 6C (timepoint 48): 0.3595 | UL97 (P16788) protein, numerical value of heatmap FIG. 6C (timepoint 48): 0.2502 | UL98 (P16789) protein, numerical value of heatmap FIG. 6C (timepoint 48): 0.3561 | UL102 (P16827) protein, numerical value of heatmap FIG. 6C (timepoint 48): 0.7853 | UL104 (P16735) protein, numerical value of heatmap FIG. 6C (timepoint 48): 0.06237 | UL112/UL113 (P17151) protein, numerical value of heatmap FIG. 6C (timepoint 48): 0.5163 | UL114 (P16769) protein, numerical value of heatmap FIG. 6C (timepoint 48): 0.6429 | UL119/UL118 (P16739) protein, numerical value of heatmap FIG. 6C (timepoint 48): 0.3879 | UL128 (P16837) protein, numerical value of heatmap FIG. 6C (timepoint 48): 0.163 | US8 (P09730) protein, numerical value of heatmap FIG. 6C (timepoint 48): 0.9091 | US9 (P09729) protein, numerical value of heatmap FIG. 6C (timepoint 48): 0.6112 | US12 (P09721) protein, numerical value of heatmap FIG. 6C (timepoint 48): 0.7192 | US13 (P09720) protein, numerical value of heatmap FIG. 6C (timepoint 48): 0.7254 | US14 (P09719) protein, numerical value of heatmap FIG. 6C (timepoint 48): 0.2849 | US18 (P69334) protein, numerical value of heatmap FIG. 6C (timepoint 48): 0.7625 | US22 (P09722) protein, numerical value of heatmap FIG. 6C (timepoint 48): 0.4007 | US23 (P09701) protein, numerical value of heatmap FIG. 6C (timepoint 48): 0.4974 | US24 (P09700) protein, numerical value of heatmap FIG. 6C (timepoint 48): 0.4753 | gB (P06473) protein, numerical value of heatmap FIG. 6C (timepoint 48): 0.1893 | sp|P09710|IR01_HCMVA (P09710) protein, numerical value of heatmap FIG. 6C (timepoint 48): 0.2164 | CVC2 (P16726) protein, numerical value of heatmap FIG. 6C (timepoint 72): 0.2298 | DBP (P17147) protein, numerical value of heatmap FIG. 6C (timepoint 72): 0.7802 | HELI (P16736) protein, numerical value of heatmap FIG. 6C (timepoint 72): 0.7131 | NEC1 (P16794) protein, numerical value of heatmap FIG. 6C (timepoint 72): 0.2456 | NEC2 (P16791) protein, numerical value of heatmap FIG. 6C (timepoint 72): 0.6919 | RIR1 (P16782) protein, numerical value of heatmap FIG. 6C (timepoint 72): 0.443 | TRM1 (P16724) protein, numerical value of heatmap FIG. 6C (timepoint 72): 0.5444 | UL4 (P17146) protein, numerical value of heatmap FIG. 6C (timepoint 72): 0.08145 | UL26 (P16762) protein, numerical value of heatmap FIG. 6C (timepoint 72): 0.4973 | UL32 (P08318) protein, numerical value of heatmap FIG. 6C (timepoint 72): 0.2303 | UL34 (P16812) protein, numerical value of heatmap FIG. 6C (timepoint 72): 0.5754 | UL35 (P16766) protein, numerical value of heatmap FIG. 6C (timepoint 72): 0.3346 | UL38 (P16779) protein, numerical value of heatmap FIG. 6C (timepoint 72): 0.9343 | UL44 (P16790) protein, numerical value of heatmap FIG. 6C (timepoint 72): 0.5197 | UL48 (P16785) protein, numerical value of heatmap FIG. 6C (timepoint 72): 0.4665 | UL54 (P08546) protein, numerical value of heatmap FIG. 6C (timepoint 72): 1.149 | UL71 (P16823) protein, numerical value of heatmap FIG. 6C (timepoint 72): 0.768 | UL78 (P16751) protein, numerical value of heatmap FIG. 6C (timepoint 72): 1.048 | UL84 (P16727) protein, numerical value of heatmap FIG. 6C (timepoint 72): 0.3948 | UL95 (P16801) protein, numerical value of heatmap FIG. 6C (timepoint 72): 0.3335 | UL96 (P16787) protein, numerical value of heatmap FIG. 6C (timepoint 72): 0.5111 | UL97 (P16788) protein, numerical value of heatmap FIG. 6C (timepoint 72): 0.5258 | UL98 (P16789) protein, numerical value of heatmap FIG. 6C (timepoint 72): 0.6741 | UL102 (P16827) protein, numerical value of heatmap FIG. 6C (timepoint 72): 1.111 | UL104 (P16735) protein, numerical value of heatmap FIG. 6C (timepoint 72): 0.4852 | UL112/UL113 (P17151) protein, numerical value of heatmap FIG. 6C (timepoint 72): 0.7131 | UL114 (P16769) protein, numerical value of heatmap FIG. 6C (timepoint 72): 1.008
